Assay results taken from patent US8586755B2, “Substituted nicotinamides as KCNQ2/3 modulators” (Grünenthal GmbH, priority 2009, dated 2013).

Target: T1, KCNQ2/3 channels (Homo sapiens, UniProt O43525+O43526)
T1 construct: expressed in transfected cells
Test: Fluorescence assay using a voltage sensitive dye (fluorimetry)
Format: cell-based
Conditions: CHO-K1 cells expressing KCNQ2/3 channels; for Emax / Fluorimetry % efficacy (retigabine 50 μM = 100%): retigabine 50 μM = 100%; for Emax: read-out: Fluorimetry % efficacy (retigabine 50 μM = 100%); for EC50: agonistic activity
Method in brief: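 Agonist EC50s come from the F2 vs F1 fluorescence comparison, F2 taken at the peak after KCl depolarisation (92 mM final) and F1 after 30 min compound exposure at room temperature. Assay uses KCNQ2/3-expressing CHO-K1 cells stained 45 min with a red voltage-sensitive dye in pH 7.4 ES buffer.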

Emax [%] | EC50 [µM] | Fluorimetry % efficacy (retigabine 50 μM = 100%) [%] | SMILES
28 |  |  | O=C(NCc1ccc2ccccc2c1)c1cccnc1SCCCc1ccc(F)cc1 [compound 136, 2-[3-(4-Fluorophenyl)-propylsulfanyl]-N-(naphthalen-2-yl-methyl)-pyridine-3-carboxylic acid amide]
93 | 0.366 |  | O=C(NCc1ccc2c(c1)OCCO2)c1cccnc1SCCCc1ccc(F)cc1 [compound 137, N-(2,3-Dihydro-[1,4]benzodioxin-6-yl-methyl)-2-[3-(4-fluorophenyl)-propylsulfanyl]-pyridine-3-carboxylic acid amide]
92 | 0.417 |  | O=C(NCc1cccc(N2CCOCC2)c1)c1cccnc1SCCCc1ccc(F)cc1 [compound 138, 2-[3-(4-Fluorophenyl)-propylsulfanyl]-N-[(3-morpholin-4-yl-phenyl)-methyl]-pyridine-3-carboxylic acid amide]
81 | 0.101 |  | O=C(NCc1ccc2c(c1)OCC2)c1cccnc1SCCCc1ccc(F)cc1 [compound 139, N-(2,3-Dihydro-benzofuran-6-yl-methyl)-2-[3-(4-fluorophenyl)-propylsulfanyl]-pyridine-3-carboxylic acid amide]
88 | 0.312 |  | O=C(NCc1cccc(-n2cccn2)c1)c1cccnc1SCCCc1ccc(F)cc1 [compound 140, 2-[3-(4-Fluorophenyl)-propylsulfanyl]-N-[[3-(1H-pyrazol-1-yl)-phenyl]-methyl]-pyridine-3-carboxylic acid amide]
86 | 12.8 |  | O=C(NCCCn1ccnn1)c1cccnc1SCCCc1ccc(F)cc1 [compound 141, 2-[3-(4-Fluorophenyl)-propylsulfanyl]-N-[3-(1H-[1,2,3]triazol-1-yl)-propyl]-pyridine-3-carboxylic acid amide]
260 | 0.097 |  | O=C(NCC1C2CCC1CC2)c1cccnc1SCCCc1ccc(F)cc1 (stereo not shown) [compound 142, N-(7-Bicyclo[2.2.1]heptanyl-methyl)-2-[3-(4-fluorophenyl)-propylsulfanyl]-pyridine-3-carboxylic acid amide]
 | 1.51 | 175 | O=C(NCc1ccccn1)c1cccnc1SCCCc1ccc(F)cc1 [compound 143]
215 | 0.815 |  | O=C(NCc1nccs1)c1cccnc1SCCCc1ccc(F)cc1 [compound 144, 2-[3-(4-Fluorophenyl)-propylsulfanyl]-N-(thiazol-2-yl-methyl)-pyridine-3-carboxylic acid amide]
174 | 1.49 |  | O=C(NCc1cncs1)c1cccnc1SCCCc1ccc(F)cc1 [compound 145, 2-[3-(4-Fluorophenyl)-propylsulfanyl]-N-(thiazol-5-yl-methyl)-pyridine-3-carboxylic acid amide]
193 | 2.55 |  | O=C(NCc1ncco1)c1cccnc1SCCCc1ccc(F)cc1 [compound 146, 2-[3-(4-Fluorophenyl)-propylsulfanyl]-N-(oxazol-2-yl-methyl)-pyridine-3-carboxylic acid amide]
 |  | 34 | Cc1ccnc(SCCCc2ccc(F)cc2)c1C(=O)NCc1cccs1 [compound 147]
85 | 1.96 |  | Cc1ccnc(SCCCc2ccc(F)cc2)c1C(=O)NCCC(C)(C)C [compound 148, N-(3,3-Dimethyl-butyl)-2-[3-(4-fluorophenyl)-propylsulfanyl]-4-methyl-pyridine-3-carboxylic acid amide]
181 | 0.093 |  | CC(CCc1cccc(C(F)(F)F)c1)Sc1ncccc1C(=O)NCCC(C)(C)C (stereo not shown) [compound 149, N-(3,3-Dimethyl-butyl)-2-[[1-methyl-3-[3-(trifluoromethyl)phenyl]-propyl]sulfanyl]-pyridine-3-carboxylic acid amide]
96 | 1.49 |  | O=C(NCc1ccc2cccnc2c1)c1cccnc1SCCCc1ccc(F)cc1 [compound 150, 2-[3-(4-Fluorophenyl)-propylsulfanyl]-N-(quinolin-7-yl-methyl)-pyridine-3-carboxylic acid amide]
95 | 0.667 |  | O=C(NCc1cccc(-c2ccccn2)c1)c1cccnc1SCCCc1ccc(F)cc1 [compound 151, 2-[3-(4-Fluorophenyl)-propylsulfanyl]-N-[(3-pyridin-2-yl-phenyl)-methyl]-pyridine-3-carboxylic acid amide]
89 | 1.29 |  | O=C(NCc1cccc(-c2cccnc2)c1)c1cccnc1SCCCc1ccc(F)cc1 [compound 152, 2-[3-(4-Fluorophenyl)-propylsulfanyl]-N-[(3-pyridin-3-yl-phenyl)-methyl]-pyridine-3-carboxylic acid amide]

Emax [%] | EC50 [µM] | Fluorimetry % efficacy (retigabine 50 μM = 100%) [%] | SMILES
155 | 1.25 |  | C[C@H](CCc1ccccc1)Sc1ncccc1C(=O)NCCC(C)(C)C [compound 153, N-(3,3-Dimethyl-butyl)-2-[[(1R)-1-methyl-3-phenyl-propyl]sulfanyl]-pyridine-3-carboxylic acid amide]
207 | 0.237 |  | C[C@@H](CCc1ccccc1)Sc1ncccc1C(=O)NCCC(C)(C)C [compound 154, N-(3,3-Dimethyl-butyl)-2-[[(1S)-1-methyl-3-phenyl-propyl]sulfanyl]-pyridine-3-carboxylic acid amide]
159 | 0.657 |  | CC(C)(C)CCNC(=O)c1cccnc1SC1CCCC1Cc1ccccc1 (stereo not shown) [compound 155, 2-[(2-Benzyl-cyclopentyl)sulfanyl]-N-(3,3-dimethyl-butyl)-pyridine-3-carboxylic acid amide]
249 | 0.11 |  | O=C(NCC1C2CCC1CC2)c1cccnc1SCCCc1cccc(C(F)(F)F)c1 (stereo not shown) [compound 156, N-(7-Bicyclo[2.2.1]heptanyl-methyl)-2-[3-[3-(trifluoromethyl)phenyl]-propylsulfanyl]-pyridine-3-carboxylic acid amide]
88 |  |  | O=C(NCCCn1cncn1)c1cccnc1SCCCc1ccc(F)cc1 [compound 157, 2-[3-(4-Fluorophenyl)-propylsulfanyl]-N-[3-(1H-[1,2,4]triazol-1-yl)-propyl]-pyridine-3-carboxylic acid amide]
30 |  |  | O=C(NCc1nnco1)c1cccnc1SCCCc1ccc(F)cc1 [compound 158, 2-[3-(4-Fluorophenyl)-propylsulfanyl]-N-([1,3,4]oxadiazol-2-yl-methyl)-pyridine-3-carboxylic acid amide]
113 | 0.67 |  | O=C(NCc1cccc(-c2ccncc2)c1)c1cccnc1SCCCc1ccc(F)cc1 [compound 159, 2-[3-(4-Fluorophenyl)-propylsulfanyl]-N-[(3-pyridin-4-yl-phenyl)-methyl]-pyridine-3-carboxylic acid amide]
74 | 0.228 |  | O=C(NCc1ccc2c(c1)N(CC1CC1)CCO2)c1cccnc1SCCCc1ccc(F)cc1 [compound 160, N-[[4-(Cyclopropyl-methyl)-3,4-dihydro-2H-[1,4]benzoxazin-6-yl]-methyl]-2-[3-(4-fluorophenyl)-propylsulfanyl]-pyridine-3-carboxylic acid amide]
67 | 0.145 |  | CCN1CCOc2ccc(CNC(=O)c3cccnc3SCCCc3ccc(F)cc3)cc21 [compound 161, N-[(4-Ethyl-3,4-dihydro-2H-[1,4]benzoxazin-6-yl)-methyl]-2-[3-(4-fluorophenyl)-propylsulfanyl]-pyridine-3-carboxylic acid amide]
83 | 0.166 |  | CN1CCOc2ccc(CNC(=O)c3cccnc3SCCCc3ccc(F)cc3)cc21 [compound 162, 2-[3-(4-Fluorophenyl)-propylsulfanyl]-N-[(4-methyl-3,4-dihydro-2H-[1,4]benzoxazin-6-yl)-methyl]-pyridine-3-carboxylic acid amide]
89 | 0.537 |  | CC(C)(CCNC(=O)c1cccnc1SCCCc1ccc(F)cc1)c1ccccc1 [compound 163, 2-[3-(4-Fluorophenyl)-propylsulfanyl]-N-(3-methyl-3-phenyl-butyl)-pyridine-3-carboxylic acid amide]
119 | 0.03 |  | O=C(NCc1ccc(F)cc1)c1cccnc1SCCC(F)(F)c1cccc(C(F)(F)F)c1 [compound 165, 2-[[3,3-Difluoro-3-[3-(trifluoromethyl)phenyl]-propyl]sulfanyl]-N-[(4-fluorophenyl)-methyl]-pyridine-3-carboxylic acid amide]
206 | 0.046 |  | CC(C)(C)CCNC(=O)c1cccnc1SCCC(F)(F)c1cccc(C(F)(F)F)c1 [compound 166, 2-[[3,3-Difluoro-3-[3-(trifluoromethyl)phenyl]-propyl]sulfanyl]-N-(3,3-dimethyl-butyl)-pyridine-3-carboxylic acid amide]
 | 2.71 | 77 | CC(C)(C)CCNC(=O)c1cccnc1SCC(=O)Cc1ccccc1 [compound 167]
110 | 0.017 |  | O=C(NCc1cccc(F)c1)c1cccnc1SCCC(F)(F)c1ccc(F)cc1 [compound 168, 2-[[3,3-Difluoro-3-(4-fluorophenyl)-propyl]sulfanyl]-N-[(3-fluorophenyl)-methyl]-pyridine-3-carboxylic acid amide]
181 | 0.432 |  | COCCNC(=O)c1cccnc1SCCC(F)(F)c1ccc(F)cc1 [compound 171, 2-[[3,3-Difluoro-3-(4-fluorophenyl)-propyl]sulfanyl]-N-(2-methoxy-ethyl)-pyridine-3-carboxylic acid amide]
196 | 1.05 |  | COCCNC(=O)c1cccnc1SCCCc1ccc(F)cc1 [compound 172, 2-[3-(4-Fluorophenyl)-propylsulfanyl]-N-(2-methoxy-ethyl)-pyridine-3-carboxylic acid amide]
